# Test results as given in US20110065760A1, “COMPOUNDS FOR THE INHIBITION OF ROTAMASES AND USE THEREOF” (Jerini AG, priority 2002, published 2011).
# Key:
# EcParvulin = EcParvulin (Escherichia coli, UniProt P0A9L5); assay: protease-coupled PPIase assay, EcParvulin; format: biochemical
# [1] = system: cyclin D1 in MCF-7 and HeLa cells; assay: Cyclin D1 down regulation (western blot marker analysis); format: cell-based, human
# Description: MCF-7 (5×10^5 cells/well) and HeLa cells (1.5×10^5 cells/well) were seeded in 6-well plates and incubated at 37° C. over night. Compounds or DMSO (final solvent concentration 0.1%) were added to the cells and incubated for different times as indicated. Subsequently, cells were lysed in RIPA buffer for 30 min on ice and centrifuged for 20 min at 4° C. After addition of electrophoresis sample buffer (4×) and 50 mM DTT to the supernatant, samples were boiled for 4 min at 95° C. Samples (equivalent to 2×10^5 cells/well) were run on a 15% SDS gel followed by blotting onto PVDF membrane.
# The membrane was blocked for 1 h in 10 mM Tris (pH 7.5), 100 mM NaCl, 0.1% Tween-20 and 5% non-fat dry milk (blocking buffer) and incubated for 1 h with mouse anti-hCyclin D1 monoclonal antibody (clone DCS-6, BD Biosciences) diluted to 1 μg/ml in blocking buffer. Blots were washed 3×10 min with 10 mM Tris (pH 7.5), 100 mM NaCl, 0.1% Tween-20 (washing buffer) and incubated with 0.7 μg/ml peroxidase-conjugated sheep anti-mouse IgG (Sigma) in blocking buffer for 1 h. After washing 3×10 min with washing buffer, the plot was developed with the ECL+ detection kit (Amersham Biosciences).
# Hela cells = assay: DAPI staining; format: cell-based, human; conditions: FIG. 3
# Description: Hela cells grown on poly-L-Lys-coated coverslips were fixed with 2% paraformaldehyde/MeOH.
# Cellular DNA was stained with DAPI staining buffer (100 mM Tris (pH 7.4), 150 mM NaCl, 1 mM CaCl2, 0.5 mM MgCl2, 0.1% nonidet P-40, 1 μg/ml DAPI (Molecular Probes)). All the steps were performed at room temperature, and cells were washed two times with PBS after each step. Finally, cells were mounted in 80% glycerol/PBS.
# [2] = WST-1 cytotoxicity assay, PC-3; format: cell-based; conditions: human, PC-3 cells (prostate carcinoma); WST-1, 48 h incubation; read-out: EC50 class, cytotoxic effect, CL-3 (PC-3)
# Description: (§1) For this cytotoxic evaluation of the compounds the commercial available WST-1 assay (Roche) was used according to the manufacturer's instructions. The assay is based on the cleavage of the tetrazolium salt WST-1 by mitochondrial dehydrogenases found in viable cells. In general compounds were added to cells cultured in 96-well plates at 37° C. After 48 h of incubation 10 μl of WST-1 solution was added. The formazan dye was analyzed with an ELISA plate reader at (450 vs. 620) nm. CL-1: human acute myeloid leukemia, HL-60 CL-2: human cervix carcinoma, HeLa CL-3: human prostate carcinoma, PC-3 CL-4: human colon adenocarcinoma, Caco-2 CL-5: human breast adenocarcinoma, MCF-7
# [3] = system: tumor cell lines (HL-60, HeLa, PC-3, Caco-2, MCF-7); assay: WST-1 cytotoxicity assay, tumor cell lines (panel statement); format: cell-based, human; conditions: WST-1, 48 h; table 4
# Description: as §1
# [4] = WST-1 cytotoxicity assay, Caco-2; format: cell-based; conditions: human, Caco-2 cells (colon adenocarcinoma); WST-1, 48 h incubation; read-out: EC50 class, cytotoxic effect, CL-4 (Caco-2)
# Description: as §1
# Trypsin = biological target: T1, Trypsin (UniProt P00760); assay: trypsin assay; format: biochemical; conditions: 0.1 μg/ml trypsin, 120 μM Ac-Ala-Ala-Ser(PO3H2)-Pro-Arg-pNA, pH 7.8, 30° C., 30 min incubation; read-out: IC50 class, Target T-7 (Trypsin)
# T1 sequence (P00760 1-246): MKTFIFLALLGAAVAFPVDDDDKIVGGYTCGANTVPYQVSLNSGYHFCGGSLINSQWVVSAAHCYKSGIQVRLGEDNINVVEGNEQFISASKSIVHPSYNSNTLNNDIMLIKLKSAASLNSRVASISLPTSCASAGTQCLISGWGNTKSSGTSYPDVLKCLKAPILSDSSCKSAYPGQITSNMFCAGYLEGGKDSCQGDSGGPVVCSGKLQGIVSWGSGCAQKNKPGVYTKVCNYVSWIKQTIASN
# Description: In order to investigate the impact of some of the inventive compounds on the activity of key proteases the following assay was performed: Protease activities were measured spectrophotometrically at 30° C. according to Schomburg and Salzmann (Schomburg, B.; Salzmann M. GBF: Enzyme Handbook. Springer Verlag, Berlin Heidelberg, 1991) and Bergmeyer et al. (Bergmeyer, H. U.; Bergmeyer, J.; Graβl, M. Methods of Enzymatic Analysis, Vol. V Enzymes 3: Peptides, Proteinases and Their Inhibitors. pp 55-371, VCH, Weinheim, 1988). The release of 4-nitroaniline was determined at 390 nm with a Spectramax Plus UV/Vis spectrophotometer (Molecular Devices). The cathepsin B assay was performed in a reaction mixture containing 0.2 μg/ml cathepsin B, 2 mM Z-Arg-Arg-pNA in 88 mM KH2PO4, 12 mM Na2HPO4, 1.33 mM EDTA, 0.03% Brij 35 (pH 5.8). The trypsin assay was carried out in a reaction mixture containing 0.1 μg/ml trypsin and 120 μM Ac-Ala-Ala-Ser(PO3H2)-Pro-Arg-pNA in 35 mM HEPES (pH 7.8) and the papain assay in a mixture consisting of 16 μg/ml papain and 2 mM Bz-DL-Arg-pNA in 10 mM Na2HPO4, 2 mM L-Cys, 5 mM EDTA (pH 6.5). In general, reactions were started by addition of peptide substrate after a 30 min incubation of 1-100 μM effector with given concentrations of enzyme.
# LpCyp18 = LpCyp18 (Legionella pneumophila, UniProt Q5ZRZ4); assay: biochemical; conditions: IC50 class, Target T-4 (LpCyp18)
# Sequence of LpCyp18 (Q5ZRZ4 1-164): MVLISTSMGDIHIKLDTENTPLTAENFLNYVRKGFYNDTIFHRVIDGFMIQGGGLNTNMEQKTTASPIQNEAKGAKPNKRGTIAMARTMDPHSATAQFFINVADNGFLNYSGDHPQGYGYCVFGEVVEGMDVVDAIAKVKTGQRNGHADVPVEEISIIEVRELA
# hPin1 = hPin1 (Homo sapiens, UniProt Q13526); assay: protease-coupled PPIase assay, hPin1; format: biochemical; conditions: 6 nM hPin1, substrate Ac-Ala-Ala-Ser(PO3H2)-Pro-Arg-pNA, trypsin, pH 7.8, 6° C.; read-out: IC50 class, Target T-1 (hPin1)
# Sequence of hPin1 (Q13526 whole entry): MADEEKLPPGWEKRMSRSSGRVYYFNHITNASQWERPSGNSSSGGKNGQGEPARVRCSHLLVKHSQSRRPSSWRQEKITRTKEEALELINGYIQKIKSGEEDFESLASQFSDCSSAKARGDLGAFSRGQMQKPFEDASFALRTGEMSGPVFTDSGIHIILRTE
# [5] = WST-1 cytotoxicity assay, MCF-7; format: cell-based; conditions: human, MCF-7 cells (breast adenocarcinoma); WST-1, 48 h incubation; read-out: EC50 class, cytotoxic effect, CL-5 (MCF-7)
# Description: as §1
# [6] = WST-1 cytotoxicity assay, HeLa; format: cell-based; conditions: human, HeLa cells (cervix carcinoma); WST-1, 48 h incubation; read-out: EC50 class, cytotoxic effect, CL-2 (HeLa)
# Description: as §1
# Sequence of EcParvulin (P0A9L5 whole entry): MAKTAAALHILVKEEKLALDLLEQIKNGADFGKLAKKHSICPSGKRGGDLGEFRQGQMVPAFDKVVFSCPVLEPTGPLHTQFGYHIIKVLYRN
smiles,measurement,setting,value
Cc1c(Cl)cc(NC(=O)NC(C)(C)CC(C)(C)C)c(O)c1Cl [Compound 102],IC50,EcParvulin,1 to 10 µM
same,cyclin D1 down regulation,[1],particular relevance
same,"induction of apoptosis (DAPI staining, fluorescence microscopy)",Hela cells,induce apoptosis
same,EC50 at 48 h,[2],< 10 µM
same,cytotoxic effect on the tumor cell lines tested,[3],particular relevance
same,EC50 at 48 h,[4],< 10 µM
same,IC50,Trypsin,10 to 50 µM
same,IC50,LpCyp18,10 to 50 µM
same,IC50,hPin1,1 to 10 µM
same,EC50 at 48 h,[5],< 10 µM
same,EC50 at 48 h,[6],< 10 µM
